Patent publication US8129425B2, “Small organic molecule regulators of cell proliferation” (Curis, Inc., priority 2000, dated 2012)
pEC50: −log10 of the molar value.

Columns and labels:
[1] = test system: hedgehog-responsive Gli-Luc reporter-construct; experiment: Gli-Luc hedgehog pathway reporter assay in [10T1/2(s12)] cells; format: cell-based, murine; conditions: Table 1
Experimental: To measure the hedgehog agonist activity of compounds, we used [10T1/2(s12)] cells containing the hedgehog-responsive Gli-Luc reporter-construct. In each MTP (MicroTiter Plate; 96-well plate), 10,000-20,000 cells were plated per well, in full media (10% FBS). After about 24-48 hr, plates were switched to low-serum media (=0.5%. FBS). Subsequently, a test compound was added at 1-5 μM in the presence or absence of octyl-hedgehog (see below). After another 24 hr, the media from the MTPs was discarded and replaced with luciferase assay-mix, containing lysis-buffer with luciferase substrate. The plates were incubated at RT for about 15-30 min and read in a luminometer.
Plates were incubated for 48 hr before switching to low-serum. Compounds were screened at 1-2 μM in the presence of Hh protein (0.01 μg/ml; EC30=about 30% of max-induced activity).
Plates were incubated for 24 hr before switching to low-serum. Compounds were screened at 5 μM without adding Hh protein.
From Screen A, we identified hits identified in FIGS. 32 and 33. The 1,4-diaminocyclohexane subunit of the compounds of FIG. 32 which include this moiety have the two amino substituents disposed in a trans-relationship, e.g., both substituents equatorial on the cyclohexane subunit. These hits were confirmed in Screen B. The data shown in FIGS. 34a and 34b essentially involved dosing the two compounds in both assays (Gli-Luc & SV-Luc).
The data from the Gli-Luc assay is converted to percent activity where full activity with Hh protein is set at 100% (FIG. 35; Table 1). […] Furthermore, the compounds show a more striking induction in the presence of hedgehog (EC50=0.2-0.3 μM, ECmax=70-90% of max induced activity with Hh protein), indicating a synergy between the compounds and Hh protein, consistent with the compounds serving as agonists for the hedgehog pathway.

[2] = test system: malonate induced striatal lesion; experiment: Rat malonate lesion model of Huntington's disease; format: in vivo; conditions: 300 μM in Alzet pump into brain ventricles, 1 μl/hr for 6 days pretreatment; vs vehicle, p=0.0159
Experimental: Malonate is a mitochondrial toxin and defects in mitochondrial energy metabolism are thought to play a role in the pathology of neurodegenerative diseases such as HD. When malonate is injected into the rat striatum a lesion forms in this brain region. The experiments described below tested whether the Hh agonist would reduce the size of the malonate induced striatal lesion. Hh agonist was administered directly into the brain ventricles of male SD rats via a cannula attached to an osmotic Alzet pump. […] After 6 days of pretreatment with compound, malonate was injected directly into the brain striatum and the Alzet pump was removed. Four days later rats were euthanized and the brains were sliced into 2 mm slabs. The slices were placed in a 2% solution (TTC) that stains living tissue red and the striatal infarct white. The size of the infarct (% infarct) was measured using image analysis software and the data were analyzed by one-way ANOVA followed by appropriate post-hoc tests (p<0.05).

SVZ precursor cells = experiment: SVZ precursor cell proliferation (BrdU) after direct brain administration in adult rats; format: in vivo, rat; conditions: 200 μM in pump into brain ventricles, 0.5 μl/hr for 6 days; p<0.05
Experimental: Hh agonist was administered directly into the brain ventricles of male SD rats via a cannula attached to an osmotic Alzet pump. The pumps were filled with either vehicle (5% 2-hydroxypropyl-B-cyclodextrin, 4.35% Mannitol, 0.2% DMSO) or Hh agonist (U″ ranging from 10-600 μM) and the pump released compound into the ventricles at constant rate of 0.5 μl/hr for 6 days. After 6 days of pretreatment with compound, animals were injected with Bromodeoxyuridine (BrdU, 50 mg/kg, ip) to label dividing cells. Two hours after BrdU treatment, rats were euthanized and perfused with fixative. Brains were collected and processed for BrdU immunohistochemistry. The number of BrdU-immunoreactive (BrdU-IR) cells was then counted in the SVZ on both the sides of the brain with the cannula (ipsilateral) and without (contralateral).

pEC50 [1]: > 8.30
SMILES: CN[C@H]1CC[C@H](N(Cc2cccc(-c3ccncc3)c2)C(=O)c2sc3c(F)ccc(F)c3c2Cl)CC1 [U′′]
size of malonate-induced infarct (% infarct) [2]: reduced the size of the malonate-induced infarct
number of BrdU-IR cells in SVZ (SVZ precursor cells): dramatically increased on both sides of the brain
